This assay deals with T1, Zcchc11 enzyme (Homo sapiens, UniProt Q5TAX3).
T1 construct: made in house; host or cells: HEK293 cells (Zcchc11); E. coli Rosetta II (LIN28A)
T1 sequence (Q5TAX3 212-1420): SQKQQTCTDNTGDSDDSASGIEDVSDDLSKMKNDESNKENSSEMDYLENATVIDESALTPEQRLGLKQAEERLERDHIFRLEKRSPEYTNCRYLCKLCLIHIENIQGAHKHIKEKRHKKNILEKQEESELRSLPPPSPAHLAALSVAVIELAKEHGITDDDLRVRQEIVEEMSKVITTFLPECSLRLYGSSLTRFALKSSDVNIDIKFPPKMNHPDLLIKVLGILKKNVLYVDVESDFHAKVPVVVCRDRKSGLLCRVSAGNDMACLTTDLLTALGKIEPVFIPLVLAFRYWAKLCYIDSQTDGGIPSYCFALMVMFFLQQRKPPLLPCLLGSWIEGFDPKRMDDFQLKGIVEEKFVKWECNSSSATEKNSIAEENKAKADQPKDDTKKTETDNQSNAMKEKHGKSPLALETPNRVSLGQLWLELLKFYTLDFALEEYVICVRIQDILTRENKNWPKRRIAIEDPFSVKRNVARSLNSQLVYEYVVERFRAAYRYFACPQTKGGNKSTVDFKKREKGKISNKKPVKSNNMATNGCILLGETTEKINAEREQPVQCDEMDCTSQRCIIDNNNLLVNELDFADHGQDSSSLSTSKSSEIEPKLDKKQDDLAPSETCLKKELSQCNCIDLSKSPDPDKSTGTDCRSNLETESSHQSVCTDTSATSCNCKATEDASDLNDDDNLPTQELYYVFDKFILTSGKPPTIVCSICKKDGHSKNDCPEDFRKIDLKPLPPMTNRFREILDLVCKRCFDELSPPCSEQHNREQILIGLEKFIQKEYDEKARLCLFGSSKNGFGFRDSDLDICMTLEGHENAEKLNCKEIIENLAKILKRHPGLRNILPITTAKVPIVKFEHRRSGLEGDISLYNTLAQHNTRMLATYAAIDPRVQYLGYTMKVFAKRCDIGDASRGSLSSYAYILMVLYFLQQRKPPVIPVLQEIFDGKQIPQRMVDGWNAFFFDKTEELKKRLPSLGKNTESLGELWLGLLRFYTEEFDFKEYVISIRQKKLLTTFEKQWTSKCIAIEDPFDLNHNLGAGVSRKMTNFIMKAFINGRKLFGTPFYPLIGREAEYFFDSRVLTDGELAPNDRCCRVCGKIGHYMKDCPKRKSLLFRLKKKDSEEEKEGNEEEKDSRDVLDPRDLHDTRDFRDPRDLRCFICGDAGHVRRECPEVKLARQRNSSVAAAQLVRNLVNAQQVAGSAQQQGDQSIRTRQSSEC
The assay can be described thus: TUTase assay (Zcchc11 assay, Lin28a-dependent polyuridylation of pre-let-7). The assay is classed as biochemical. To be noted: Lin28a-dependent Zcchc11 (Z11) TUTase assay; read-out: Potency Lin28a-dep Z11 IC50. The essentials: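 LIN28A (10 nM) in pH 7.3 HEPES/KCl/MgCl2/DTT buffer was mixed with serially diluted compound, then 0.2 nM truncated human Zcchc11 and 2 nM labeled pre-let-7 were added for 30 min at room temperature. UTP (5 uM) and quench probe (4 nM) then started the reaction. Linear early rates gave IC50 values.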

pIC50: −log10 of the molar value.

One may read the pIC50 as −log10 of the IC50, conventionally taken in molar units. In the case of `CN(C)C1CN(c2ccc(-n3cc(C(=O)O)c(=O)c4cc(Cl)c(N5Cc6cccnc6[C@@H]5COc5ncccc5Cl)cc43)cn2)C1` [Example 597, (R)-6-chloro-7-(7-(((3-chloropyridin-2-yl)oxy)methyl)-5,7-dihydro-6H-pyrrolo[3,4-b]pyridin-6-yl)-1-(6-(3-(dimethylamino)azetidin-1-yl)pyridin-3-yl)-4-oxo-1,4-dihydroquinoline-3-carboxylic acid], the pIC50 is at least 6.00.
As for `CN(C)C1CN(c2ccc(-n3cc(C(=O)O)c(=O)c4cc(Cl)c(N5C[C@@H](O)C[C@@H]5COc5ncccc5Cl)cc43)cn2)C1` [Example 598, 6-chloro-7-((2R,4S)-2-(((3-chloropyridin-2-yl)oxy)methyl)-4-hydroxypyrrolidin-1-yl)-1-(6-(3-(dimethylamino)azetidin-1-yl)pyridin-3-yl)-4-oxo-1,4-dihydroquinoline-3-carboxylic acid], the figure is at least 6.00; as for `CN(C)C1CN(c2ccc(-n3cc(C(=O)O)c(=O)c4cc(Cl)c(N5CC(c6cccnc6)C[C@@H]5COc5ncccc5Cl)cc43)cn2)C1` (stereo partly drawn) [Example 599, 6-chloro-7-((2R)-2-(((3-chloropyridin-2-yl)oxy)methyl)-4-(pyridin-3-yl)pyrrolidin-1-yl)-1-(6-(3-(dimethylamino)azetidin-1-yl)pyridin-3-yl)-4-oxo-1,4-dihydroquinoline-3-carboxylic acid], at least 6.00; as for `CN(C)C1CN(c2ccc(-n3cc(C(=O)O)c(=O)c4cc(F)c(N5CCC[C@@H]5COc5cc(O)ccn5)c(F)c43)cn2)C1` [Example 600, (R)-1-(6-(3-(dimethylamino)azetidin-1-yl)pyridin-3-yl)-6,8-difluoro-7-(2-(((4-hydroxypyridin-2-yl)oxy)methyl)pyrrolidin-1-yl)-4-oxo-1,4-dihydroquinoline-3-carboxylic acid], at least 6.00.
Then `CN(CCN1CCC1)c1ccc(-n2cc(C(=O)O)c(=O)c3cc(Cl)c(N4CCC[C@@H]4COc4ncccc4Cl)cc32)cn1` [Example 601, (R)-1-(6-((2-(azetidin-1-yl)ethyl)(methyl)amino)pyridin-3-yl)-6-chloro-7-(2-(((3-chloropyridin-2-yl)oxy)methyl)pyrrolidin-1-yl)-4-oxo-1,4-dihydroquinoline-3-carboxylic acid], with at least 6.00.
For `CN(C)C1CN(c2ccc(-n3cc(C(=O)O)c(=O)c4cc(Cl)c(N5C[C@H](O)C[C@@H]5COc5ncccc5Cl)cc43)cn2)C1` [Example 602, 6-chloro-7-((2R,4R)-2-(((3-chloroypridin-2-yl)oxy)methyl)-4-hydroxypyrrolidin-1-yl)-1-(6-(3-(dimethylamino)azetidin-1-yl)pyridin-3-yl)-4-oxo-1,4-dihydroquinoline-3-carboxylic acid], the pIC50 was at least 6.00.
As to `COc1ccc(C2C[C@H](COc3ncccc3Cl)N(c3cc4c(cc3Cl)c(=O)c(C(=O)O)cn4-c3ccc(N4CC(N(C)C)C4)nc3)C2)cn1` (stereo partly drawn) [Example 603, 6-chloro-7-((2R)-2-(((3-chloropyridin-2-yl)oxy)methyl)-4-(6-methoxypyridin-3-yl)pyrrolidin-1-yl)-1-(6-(3-(dimethylamino)azetidin-1-yl)pyridin-3-yl)-4-oxo-1,4-dihydroquinoline-3-carboxylic acid], the pIC50 is at least 6.00.
Regarding `O=C(O)c1cn(-c2cc3nc[nH]c3cn2)c2cc(N3CCC[C@@H]3COc3ncccc3Cl)c(Cl)cc2c1=O` [Example 604, (R)-6-chloro-7-(2-(((3-chloropyridin-2-yl)oxy)methyl)pyrrolidin-1-yl)-1-(3H-imidazo[4,5-c]pyridin-6-yl)-4-oxo-1,4-dihydroquinoline-3-carboxylic acid], the pIC50 is at least 6.00.
Then `O=C(O)c1cn(-c2ccc(C3COC3)nc2)c2cc(N3CCC[C@@H]3COc3ncccc3Cl)c(Cl)cc2c1=O` [Example 605, (R)-6-chloro-7-(2-(((3-chloropyridin-2-yl)oxy)methyl)pyrrolidin-1-yl)-1-(6-(oxetan-3-yl)pyridin-3-yl)-4-oxo-1,4-dihydroquinoline-3-carboxylic acid], with at least 6.00; and `O=C(O)c1cn(-c2ccc(C3CNC3)nc2)c2cc(N3CCC[C@@H]3COc3ncccc3Cl)c(Cl)cc2c1=O` [Example 606, (R)-1-(6-(azetidin-3-yl)pyridin-3-yl)-6-chloro-7-(2-(((3-chloropyridin-2-yl)oxy)methyl)pyrrolidin-1-yl)-4-oxo-1,4-dihydroquinoline-3-carboxylic acid], with at least 6.00; and `O=C(O)c1cn(-c2ccc(C3(O)COC3)nc2)c2cc(N3CCC[C@@H]3COc3ncccc3Cl)c(Cl)cc2c1=O` [Example 607, (R)-6-chloro-7-(2-(((3-chloropyridin-2-yl)oxy)methyl)pyrrolidin-1-yl)-1-(6-(3-hydroxy-oxetan-3-yl)pyridin-3-yl)-4-oxo-1,4-dihydroquinoline-3-carboxylic acid], with at least 6.00.
Take `CN(C)C1CN(c2ccc(-n3cc(C(=O)O)c(=O)c4cc(Cl)c(N5CC(c6ccc(O)nc6)C[C@@H]5COc5ncccc5Cl)cc43)cn2)C1` (stereo partly drawn) [Example 608]: the pIC50 was at least 6.00.
Take `CN(C)C1CN(c2ccc(-n3cc(C(=O)O)c(=O)c4cc(Cl)c(N5CCC[C@@]5(C)COc5ncccc5Cl)cc43)cn2)C1` [Example 609, (S)-6-chloro-7-(2-(((3-chloropyridin-2-yl)oxy)methyl)-2-methylpyrrolidin-1-yl)-1-(6-(3-(dimethylamino)azetidin-1-yl)pyridin-3-yl)-4-oxo-1,4-dihydroquinoline-3-carboxylic acid]: the pIC50 is at least 6.00.
As for `CN(C)C1CN(c2ccc(-n3cc(C(=O)O)c(=O)c4cc(Cl)c(N5CCC[C@@H]5C[S+]([O-])c5ncccc5Cl)cc43)cn2)C1` (stereo partly drawn) [Example 610, 6-chloro-7-((2R)-2-(((3-chloropyridin-2-yl)sulfinyl)methyl)pyrrolidin-1-yl)-1-(6-(3-(dimethylamino)azetidin-1-yl)pyridin-3-yl)-4-oxo-1,4-dihydroquinoline-3-carboxylic acid], the figure is 5.00 to 6.00; as for `O=C(O)c1cn(-c2ccc(C3(O)CNC3)nc2)c2cc(N3CCC[C@@H]3COc3ncccc3Cl)c(Cl)cc2c1=O` [Example 611, (R)-6-chloro-7-(2-(((3-chloropyridin-2-yl)oxy)methyl)pyrrolidin-1-yl)-1-(6-(3-hydroxyazetidin-3-yl)pyridin-3-yl)-4-oxo-1,4-dihydroquinoline-3-carboxylic acid], at least 6.00; as for `CN(C)C1CN(c2ccc(-n3cc(C(=O)O)c(=O)c4cc(F)c(N5CCC[C@@H]5COc5cc(OCc6ccccc6)ccn5)c(F)c43)cn2)C1` [Example 612, (R)-7-(2-(((4-(benzyloxy)pyridin-2-yl)oxy)methyl)pyrrolidin-1-yl)-1-(6-(3-(dimethylamino)azetidin-1-yl)pyridin-3-yl)-6,8 difluoro-4-oxo-1,4-dihydroquinoline-3-carboxylic acid], at least 6.00.
As for `CN(C)C1CN(c2ccc(-n3cc(C(=O)O)c(=O)c4cc(F)c(N5CCC[C@@H]5COc5ncccc5Cl)c(F)c43)cn2)C1` [Example 613], the figure is at least 6.00; as for `COCCN(C)C1CN(c2ccc(-n3cc(C(=O)O)c(=O)c4cc(F)c(N5CCC[C@@H]5COc5ncccc5Cl)cc43)cn2)C1` [Example 614, (R)-7-(2-(((3-chloropyridin-2-yl)oxy)methyl)pyrrolidin-1-yl)-6-fluoro-1-(6-(3-((2-methoxyethyl) (methyl)amino)azetidin-1-yl)pyridin-3-yl)-4-oxo-1,4-dihydroquinoline-3-carboxylic acid], at least 6.00.

For the origin of these results see patent publication US12662491B2 (Redona Therapeutics, Inc., priority 2020, dated 2026).
